Consider five compounds from patent publication US4469701A, “Pyrrolid-3-en-2-ones and pharmaceutical methods of use thereof” (Stauffer Chemical Company, priority 1983, dated 1984).

Data set [1] concerns mice. The data set can be described thus: Acute toxicity / autonomic effects observation. The conditions noted are these: mouse, in vivo. Here is the method: Mice were dosed at 300 mg/kg, per oral (p.o.) and […], interperitoneal (i.p.) for observation of any acute toxic symptoms or autonomic effects during the subsequent 72 hours. If none were noted, pharmacological evaluation proceeded employing doses and concentrations for each test based on appropriate multiples of doses required by suitable reference compounds. If acute toxicity was observed initially, the minimal toxic dose was determined and pharmacological screening doses were reduced proportionately.

Data set [2] relates to spontaneously hypertensive rats (SHR). The data set can be described thus: Antihypertensive: blood pressure (tail cuff) in spontaneously hypertensive rats (SHR). In kind it is in vivo, rat. The following applies: Rattus norvegicus; 6 hr. after a 100 mg/kg oral dose; significance >10; read-out: Antihypertensive: percent decrease in systolic blood pressure in spontaneously hypertensive rats. The protocol: Blood pressure was measured indirectly (tail cuff) in unanesthetized, unheated spontaneously hypertensive rats (SHR) before and 2, 4, and 6 hours after p.o. dosing. Reduction in mean pressure by more than 10% (>10) at any two consecutive measurement times after dosing indicates antihypertensive activity.

Data set [3] relates to rats. The data set can be described thus: Bradycardia: heart rate by EKG in rats. The format is in vivo, rat. The following applies: for inhibition in vivo at 5 mg/kg: Rattus norvegicus, 0.75 h, 45 min. after a 5 mg/kg oral dose in rats, significance >10, read-out: B = Bradycardiac: percent decrease in heart rate. Here is the method:
[…] Decrease in heart rate by more than 10% (>10) is considered a bradycardic effect.
Percent decrease in heart rate 45 min. after a 5
mg/kg oral dose in rats.

Data set [4] relates to mice. Put plainly: Antiarrhythmic: chloroform-induced cardiac arrhythmia in mice. The following applies: 15 min. after a 200 mg/kg intraperitoneal dose; significance <2. The format is in vivo, mouse. The protocol: ^2 A = Antiarrythmic. Less than 2/3 mouse hearts fibrillating 15 min.
Data set [5] has as its system hypercholesterolemic mice. Put plainly: Hypocholesterolemic: serum cholesterol in hypercholesterolemic mice. In kind it is in vivo, mouse. The conditions noted are these: for inhibition in vivo at 200 mg/kg: Mus musculus, hypercholesterolemic mice, 2 oral doses of 200 mg/kg 20 hr. apart, significance >20, read-out: C = Hypocholesterolemic: percent decrease in serum cholesterol. Here is the method:
Mice made hypercholesterolemic by being fed a high cholesterol-cholic acid diet for 7 days were dosed on the sixth and seventh days, p.o. After fasting overnight, reduction in serum cholesterol concentration by more than 15% (>15) from hypercholesterolemic control mice indicates activity.
^4 C = Hypocholesterolemic. Percent decrease in serum cholesterol in
hypercholesterolemic mice given 2 oral doses of 200 mg/kg drug candidate

For a further data set, the system named is glucose-loaded mice. Put plainly: Hypoglycemic, glucose-loaded mice. The format is in vivo, mouse. The conditions noted are these: glucose loaded mice, 100 mg/kg oral dose; significance >20. The protocol: Reduction in blood glucose concentration by more than 20% (>20) in fasted, glucose-loaded (1 gm/kg) mice one hour after dosing, p.o., indicates activity (test compound administered at same time as glucose load).
^5 H = Hypoglycemic. Percent decrease in serum glucose concentration
in glucose loaded mice hr. following a 100 mg/kg oral dose.

The test system of data set [6] is rats. The data set can be described thus: Antiulcer: stress induced gastric ulcers in rats. In kind it is in vivo, rat. The conditions noted are these: for inhibition in vivo at 50 mg/kg: Rattus norvegicus, 4 hr. following a 50 mg/kg oral dose in rats, significance >60, read-out: U = Antiulcerative: percent inhibition of stress ulcers. The protocol: Fasted rats were dosed, p.o., 30 minutes before immobilization in wire mesh and partial immersion in water for 4 hours. Inhibition of the resulting stress induced gastric ulcers by more than 60% (>60) indicates activity.
^6 U = Antiulcerative. Percent inhibition of stress ulcers 4 hr.
following a 50 mg/kg oral dose in rats.

Data set [7] can be described thus: Central nervous system (CNS) depression/effects. The conditions noted are these: in vivo.
A short description of data set [8]: Anticholinergic properties (overall statement). The following applies: in vivo.
Data set [9] can be described thus: Overall pharmacological profile. The following applies: in vivo.
Data set [10] relates to hypercholesterolemic mice. Put plainly: HP-betalipoprotein: serum heparin precipitating lipoprotein (HPL). The format is in vivo, mouse. The conditions noted are these: 200 and 400 mg/kg, p.o. From the text: Reduction of serum heparin precipitating lipoprotein (HPL) concentrations (corresponding to low density lipoprotein and very low density lipoprotein fractions) in the same hypercholesterolemic mice from Test 6 above by more than 20% (>20) from control animals indicates activity.

The nature of a further data set: Estrogenic effects. The following applies: in vivo.

Consider `CC1(C)CCCC(C)(C)N1CC1=CC(=O)N(c2cccc(C(F)(F)F)c2)C1` [Compound 1], for which the “Acute toxicity / toxic effects” value with mice [1] is “apparent lack of acute toxicity”. Also, the inhibition in vivo at 100 mg/kg in data set [2] amounted to 19%. Also, in the data set on rats [3], the inhibition in vivo at 5 mg/kg came to 14%. Moreover, the “A = Antiarrythmic: mouse hearts fibrillating (of 3)” value (shortened to “A = Antiarrythmic”) in the data set with mice [4] is reported as 0. For the same compound, the inhibition in vivo at 200 mg/kg in data set [5] was 5%. In addition, the “H = Hypoglycemic: percent decrease in serum glucose concentration” value in the data set on glucose-loaded mice is listed as 14%. For the same compound, the inhibition in vivo at 50 mg/kg in the data set on rats [6] was determined as 75%. The “CNS depression / CNS effects” value in [7] is recorded as “absence of notable central nervous system (CNS) depression”. The Anticholinergic properties/effects entry in data set [8] is on record as “absence of notable”.

Consider `CC1(C)CCCC(C)(C)N1CC1=CC(=O)N(c2ccc(C(F)(F)F)cc2)C1` [Compound 7], for which the inhibition in vivo at 100 mg/kg in data set [2] amounted to 16%. Further, the inhibition in vivo at 5 mg/kg in the data set on rats [3] is 12%. Further, in the data set on mice [4], the “A = Antiarrythmic” value is recorded as 3. Also, in [5], the inhibition in vivo at 200 mg/kg turned out to be 0%. The “H = Hypoglycemic: percent decrease in serum glucose concentration” value in the data set on glucose-loaded mice is given as 22%. Further, the inhibition in vivo at 50 mg/kg in the data set with rats [6] is 38%. Moreover, the “Profile (comparison with another compound)” value (“Profile” for short) in data set [9] was “generally similar to that of Compound 6”.

With `CSc1ccc(N2CC(CN3C(C)(C)CCCC3(C)C)=CC2=O)cc1` [Compound 8], the inhibition in vivo at 100 mg/kg in [2] is 25%. Besides, the inhibition in vivo at 5 mg/kg in the data set on rats [3] was found to be 18%. Moreover, the “A = Antiarrythmic” value with mice [4] is 3. Moreover, the inhibition in vivo at 200 mg/kg in data set [5] is 0%. In addition, in the data set with rats [6], the inhibition in vivo at 50 mg/kg came to 50%. Further, the “Profile” value in [9] is on record as “generally similar to that of Compound 6”.

As to `CC1(C)CCCC(C)(C)N1CC1=CC(=O)N(c2cc(C(F)(F)F)ccc2Cl)C1` [Compound 10], in data set [2], the inhibition in vivo at 100 mg/kg is 15%. The inhibition in vivo at 5 mg/kg in the data set with rats [3] worked out at 1%. Moreover, in the data set on rats [3] (rat, in vivo), the “Bradycardic effects, in words” value is recorded as “No”. In the data set on mice [4], the “A = Antiarrythmic” value was 3. Besides, in data set [5] (200 and 400 mg/kg, p.o.), the “Serum cholesterol, in words” value is given as “Marked reductions”. Further, in data set [5], the inhibition in vivo at 200 mg/kg came out at 46%. In addition, the “Protection from stress-induced gastric ulcers, in words” value with rats [6] (50 mg/kg, p.o., rats) is “partially protected”. Also, the inhibition in vivo at 50 mg/kg in the data set on rats [6] amounted to 75%. Also, in [10], the HPL/cholesterol ratio result is reported as “large reductions” and the “Heparin precipitating lipoproteins (HPL), in words” value was “Marked reductions”. Further, in data set [8], the Anticholinergic properties/effects entry was “absence of evidence of anticholinergic effects”. In addition, the Estrogenic effects entry in “Estrogenic effects” is given as “No estrogenic effects”.

Take `COc1ccc(N2CC(CN3C(C)(C)CCCC3(C)C)=CC2=O)cc1OC` [Compound 12]: the inhibition in vivo at 100 mg/kg in data set [2] was found to be 14%. Besides, the inhibition in vivo at 5 mg/kg in the data set on rats [3] is 13%. The “A = Antiarrythmic” value with mice [4] was found to be 2. Moreover, the inhibition in vivo at 200 mg/kg in [5] is 3%. For the same compound, the inhibition in vivo at 50 mg/kg with rats [6] is 75%. Further, the “Profile” value in data set [9] was “generally similar to that of Compound 6”.
